Values of other authors in patent US20120316134A1, “ANAESTHETIC COMPOSITION” (JUROX PTY. LTD., priority 2000, published 2012).

Settings: in vivo

In the case of `CC(=O)OCC(=O)[C@H]1CC[C@H]2[C@@H]3CC[C@H]4C[C@H](O)CC[C@]4(C)[C@H]3C(=O)C[C@]12C` [alfadolone acetate, 21-acetoxy-3 α-hydroxy-5α-pregnane-11,20-dione], the “Anaesthetic potency relative to alfaxalone” value is listed as “half as potent”.
